Measurements taken from patent US7816353B2 (Exelixis, Inc., priority 2003, dated 2010).
pIC50: −log10 of the molar value.

Legend:
Type in all cases: biochemical
p70S6K = biological target: T1, p70S6K (Homo sapiens, UniProt P23443, T412E); assay: p70S6 Kinase Assay (Luciferase-Coupled Chemiluminescent Kinase assay, LCCA); details: human p70S6 kinase domain residues 1-421, T412E; 5 μM ATP; read-out: p70S6K IC50
T1 construct: human p70S6 kinase domain residues 1-421, containing a T412E mutation; made in house
T1 sequence (P23443 1-421 T412E): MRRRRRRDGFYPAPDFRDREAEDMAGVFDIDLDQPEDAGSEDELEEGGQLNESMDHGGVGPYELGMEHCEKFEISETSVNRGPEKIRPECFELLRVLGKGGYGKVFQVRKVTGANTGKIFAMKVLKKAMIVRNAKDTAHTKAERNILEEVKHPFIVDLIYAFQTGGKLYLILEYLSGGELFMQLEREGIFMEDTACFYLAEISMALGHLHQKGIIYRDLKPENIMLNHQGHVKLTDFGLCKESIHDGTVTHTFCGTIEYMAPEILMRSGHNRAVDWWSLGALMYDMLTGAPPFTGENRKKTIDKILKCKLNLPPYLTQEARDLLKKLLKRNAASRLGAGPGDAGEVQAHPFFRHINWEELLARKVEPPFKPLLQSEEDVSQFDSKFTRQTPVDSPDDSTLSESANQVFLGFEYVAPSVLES
Summary of the method: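 Luciferase-coupled chemiluminescence measured percent ATP remaining after the 2 h kinase reaction at ambient temperature, with ATP near the kinase's KM. Ten inhibitor concentrations were tested. IC50 was obtained from a Hill-equation fit.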

Akt1 = biological target: T2, Akt1 (Homo sapiens, UniProt P31749); assay: Akt1 Kinase Assay (Luciferase-Coupled Chemiluminescent Kinase assay, LCCA); details: human Akt1 kinase domain residues R144-A480, activated with PDK1; 1 μM ATP; read-out: Akt-1 IC50
T2 construct: made in house
T2 sequence (P31749 144-480): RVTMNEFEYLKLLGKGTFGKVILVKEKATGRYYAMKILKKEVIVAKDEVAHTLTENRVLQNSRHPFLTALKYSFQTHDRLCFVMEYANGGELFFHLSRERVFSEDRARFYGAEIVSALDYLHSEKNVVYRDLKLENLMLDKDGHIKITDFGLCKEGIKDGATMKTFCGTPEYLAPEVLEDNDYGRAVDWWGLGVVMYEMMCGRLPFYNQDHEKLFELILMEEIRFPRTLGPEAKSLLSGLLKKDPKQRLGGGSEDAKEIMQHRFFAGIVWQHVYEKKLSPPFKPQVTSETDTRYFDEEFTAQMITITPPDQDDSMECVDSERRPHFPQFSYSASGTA
Description: (§1) Kinase activity and compound inhibition are investigated using one or more of the three assay formats described below. The ATP concentrations for each assay are selected to be close to the Michaelis-Menten constant (KM) for each individual kinase. Dose-response experiments are performed at 10 different inhibitor concentrations in a 384-well plate format. The data are fitted to four-parameter equation (2) below; where Y is the observed signal, X is the inhibitor concentration, Min is the background signal in the absence of enzyme (0% enzyme activity), Max is the signal in the absence of inhibitor (100% enzyme activity), IC50 is the inhibitor concentration at 50% enzyme inhibition and H represents the empirical Hill's slope to measure the cooperativity. Typically H is close to unity. Y=Min+(Max−Min)/(1+(X/IC50)^H) Equation (2) p70S6 Kinase Assay
Biochemical activity of Akt1 kinase was assessed using a Luciferase-Coupled Chemiluminescent Kinase assay (LCCA) format. Kinase activity was measured as the percent ATP remaining following the kinase reaction. Remaining ATP was detected by luciferase-luciferin-coupled chemiluminescence. Specifically, the reaction was initiated by mixing test compounds, 1 μM ATP, 5 μM crosstide peptide and 1.3 nM Akt1 (baculovirus expressed human Akt1 kinase domain residues R144-A480, activated with PDK1) in a 20 uL assay buffer (20 mM Tris-HCL pH 7.5, 10 mM MgCl2, 0.01% Triton X-100, 1 mM DTT, 3 mM MnCl2). The mixture is incubated at ambient temperature for 3 hours after which 20 μL luciferase-luciferin mix is added and the chemiluminescent signal read using a Wallac Victor2 reader. The luciferase-luciferin mix consists of 50 mM HEPES, pH 7.8, 8.5 μg/mL oxalic acid (pH 7.8), 5 (or 50) mM DTT, 0.4% Triton X-100, 0.25 mg/mL coenzyme A, 63 uM AMP, 28 μg/mL luciferin and 40,000 units/mL luciferase.

PDK1 = biological target: T3, PDK1 (Homo sapiens, UniProt O15530); assay: PDK1 Kinase Assay (Luciferase-Coupled Chemiluminescent Kinase assay, LCCA); details: human PDK1 kinase domain residues M51-T359; 0.5 μM ATP; read-out: PDK-1 IC50
T3 construct: human PDK1 kinase domain residues M51-T359; made in house
T3 sequence (O15530 51-359): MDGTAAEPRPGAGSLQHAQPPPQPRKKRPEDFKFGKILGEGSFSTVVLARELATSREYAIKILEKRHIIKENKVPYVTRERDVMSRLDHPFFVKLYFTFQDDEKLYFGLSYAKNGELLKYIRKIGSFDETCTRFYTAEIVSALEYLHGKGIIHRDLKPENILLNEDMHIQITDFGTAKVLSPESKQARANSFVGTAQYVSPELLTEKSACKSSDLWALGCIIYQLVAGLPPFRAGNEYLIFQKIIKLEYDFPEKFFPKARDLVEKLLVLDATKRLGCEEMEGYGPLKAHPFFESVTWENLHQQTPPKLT
Description: as §1
Biochemical activity of PDK1 kinase was assessed using a Luciferase-Coupled Chemiluminescent Kinase assay (LCCA) format. Kinase activity was measured as the percent ATP remaining following the kinase reaction. Remaining ATP was detected by luciferase-luciferin-coupled chemiluminescence. Specifically, the reaction was initiated by mixing test compounds, 0.5 μM ATP, 0.6 μM PDKtide peptide and 6 nM PDK1 (baculovirus expressed human PDK1 kinase domain residues M51-T359) in a 20 uL assay buffer (20 mM Hepes pH 7.5, 1 mM CaCl2, 0.03% CHAPS, 2 mM DTT). The mixture is incubated at ambient temperature for 3 hours after which 20 μL luciferase-luciferin mix is added and the chemiluminescent signal read using a Wallac Victor2 reader. The luciferase-luciferin mix consists of 50 mM HEPES, pH 7.8, 8.5 μg/mL oxalic acid (pH 7.8), 5 (or 50) mM DTT, 0.4% Triton X-100, 0.25 mg/mL coenzyme A, 63 uM AMP, 28 μg/mL luciferin and 40,000 units/mL luciferase.

Row | SMILES | pIC50 (p70S6K) | pIC50 (Akt1) | pIC50 (PDK1)
1 | CCOc1nc(N)nc(N[C@H](CCCCN)C(=O)Nc2cccc(C(F)(F)F)c2)c1C#N [Example 196, N~2~-[2-amino-5-cyano-6-(ethyloxy)pyrimidin-4-yl]-N-[3-(trifluoromethyl)phenyl]-D-lysinamide] | < 5.70 | < 5.70 | –
2 | CSc1nc(N)nc(N(CC(=O)Nc2cccc(C(F)(F)F)c2)CC2CCOCC2)c1C#N [Example 101, N^2-[2-amino-5-cyano-6-(methylthio)pyrimidin-4-yl]-N^2-(tetrahydro-2H-pyran-4-ylmethyl)-N-[3-(trifluoromethyl)phenyl]glycinamide] | < 5.70 | < 5.70 | –
3 | CSc1nc(N)nc(N[C@H](CCCCN)C(=O)Nc2cccc(C(F)(F)F)c2)c1C#N [Example 195] | < 5.70 | < 5.70 | –
4 | CCOc1nc(N)nc(N(C)[C@@H](C)C(=O)Nc2cccc(OC(F)(F)F)c2)c1C#N [Example 172, N~2~-[2-amino-5-cyano-6-(ethyloxy)pyrimidin-4-yl]-N~2~-methyl-N-{3-[(trifluoromethyl)oxy]phenyl}-L-alaninamide] | < 5.70 | < 5.70 | –
5 | CCOc1nc(N)nc(N[C@@H](CCCNC(N)=O)C(=O)Nc2cccc(C(F)(F)F)c2)c1C#N [Example 194] | < 5.70 | < 5.70 | –
6 | CSc1ncc(C#N)c(NCC(=O)Nc2cccc(C(F)(F)F)c2)n1 [Example 100, N^2-[5-cyano-2-(methylthio)pyrimidin-4-yl]-N-[3-(trifluoromethyl)phenyl]glycinamide] | < 5.70 | < 5.70 | –
7 | CCOc1nc(N)nc(N[C@@H](C)C(=O)Nc2cc(C(=O)NCCN(C)C)cc(C(F)(F)F)c2)c1C#N [Example 160, 3-({N-[2-amino-5-cyano-6-(ethyloxy)pyrimidin-4-yl]-L-alanyl}amino)-N-[2-(dimethylamino)ethyl]-5-(trifluoromethyl)benzamide] | < 5.70 | < 5.70 | –
8 | COC(=O)c1cc(NC(=O)[C@H](C)Nc2nc(N)nc(SC)c2C#N)cc(C(F)(F)F)c1 [Example 112, methyl 3-({N-[2-amino-5-cyano-6-(methylthio)pyrimidin-4-yl]-L-alanyl}amino)-5-(trifluoromethyl)benzoate] | < 5.70 | < 5.70 | –
9 | CCOc1nc(N)nc(N[C@@H](CCC(=O)OC)C(=O)Nc2cccc(C(F)(F)F)c2)c1C#N [Example 170, Methyl N~2~-[2-amino-5-cyano-6-(ethyloxy)pyrimidin-4-yl]-N-[3-(trifluoromethyl)phenyl]-L-alpha-glutaminate] | < 5.70 | – | –
10 | CCOc1nc(N)nc(N[C@@H](CCCNC(=O)OC(C)(C)C)C(=O)Nc2cccc(C(F)(F)F)c2)c1C#N [Example 128, 1,1-dimethylethyl((4S)-4-{[2-amino-5-cyano-6-(ethyloxy)pyrimidin-4-yl]amino}-5-oxo-5-{[3-(trifluoromethyl)phenyl]amino}pentyl)carbamate] | < 5.70 | – | –
11 | CCOc1nc(N)nc(N(C)[C@@H](CCCCNC(=O)OCc2ccccc2)C(=O)Nc2cccc(C(F)(F)F)c2)c1C#N [Example 162, N~2~-[2-amino-5-cyano-6-(ethyloxy)pyrimidin-4-yl]-N~2~-methyl-N~6~-{[(phenylmethyl)oxy]carbonyl}-N-[3-(trifluoromethyl)phenyl]-L-lysinamide] | < 5.70 | – | –
12 | C[C@H](Nc1nc(N)nc(N)c1C#N)C(=O)Nc1cccc(C(F)(F)F)c1 [Example 89, N^2-(2,6-diamino-5-cyanopyrimidin-4-yl)-N-[3-(trifluoromethyl)phenyl]-L-alaninamide] | < 5.70 | – | –
13 | CSc1nc(N)nc(N2CCC[C@@H]2C(=O)Nc2cccc(C(F)(F)F)c2)c1C#N [Example 85, (R)-1-[2-amino-5-cyano-6-(methylthio)pyrimidin-4-yl]-N-[3-(trifluoromethyl)phenyl]prolinamide] | < 5.70 | – | –

Now from value to compound:

Row | pIC50 (p70S6K) | pIC50 (Akt1) | pIC50 (PDK1) | SMILES
14 | > 7.30 | < 5.70 | < 5.70 | CSc1cc(OCC(=O)Nc2cccc(C(F)(F)F)c2)nc(N)n1
15 | 5.70 to 6.30 | < 5.70 | – | CSc1nc(N)nc(N[C@@H](CCCNC(N)=O)C(=O)Nc2cccc(C(F)(F)F)c2)c1C#N [Example 147, N~5~-(aminocarbonyl)-N~2~-[2-amino-5-cyano-6-(methylthio)pyrimidin-4-yl]-N-[3-(trifluoromethyl)phenyl]-L-omithinamide]
16 | > 7.30 | < 5.70 | – | CSc1nc(N)nc(SCC(=O)Nc2nc3ccccc3s2)c1C#N [Example 23, 2-{[2-amino-5-cyano-6-(methylthio)pyrimidin-4-yl]thio}-N-1,3-benzothiazol-2-ylacetamide]
17 | > 7.30 | < 5.70 | < 5.70 | CSc1nc(N)nc(N(C)[C@@H](C)C(=O)Nc2cc(C(=O)NCCN3CCOCC3)cc(C(F)(F)F)c2)c1C#N [Example 135, 3-({N-[2-amino-5-cyano-6-(methylthio)pyrimidin-4-yl]-N-methyl-L-alanyl}amino)-N-(2-morpholin-4-ylethyl)-5-(trifluoromethyl)benzamide]
18 | > 7.30 | < 5.70 | < 5.70 | CSc1nc(N)nc(SCC(=O)Nc2ccccn2)c1C#N [Example 29, 2-{[2-amino-5-cyano-6-(methylthio)pyrimidin-4-yl]thio}-N-pyridin-2-ylacetamide]
19 | 5.70 to 6.30 | < 5.70 | – | CCOc1nc(N)nc(N[C@@H](CCCN)C(=O)Nc2cccc(C(F)(F)F)c2)c1C#N [Example 148, N~2~-[2-amino-5-cyano-6-(ethyloxy)pyrimidin-4-yl]-N-[3-(trifluoromethyl)phenyl]-L-omithinamide]
20 | 6.30 to 7.30 | < 5.70 | – | Nc1nc(Cl)c(C=O)c(SCC(=O)Nc2cccc(C(F)(F)F)c2)n1 [Example 43, 2-[(2-amino-6-chloro-5-formylpyrimidin-4-yl)thio]-N-[3-(trifluoromethyl)phenyl]acetamide]
21 | 6.30 to 7.30 | < 5.70 | – | Nc1nc(Cl)cc(SCC(=O)Nc2cccc(C(F)(F)F)c2)n1
22 | 6.30 to 7.30 | – | – | CCCOc1nc(N)nc(N[C@@H](C)C(=O)Nc2cccc(C(F)(F)F)c2)c1C#N [Example 115, N^2-[2-amino-5-cyano-6-(propyloxy)pyrimidin-4-yl]-N-[3-(trifluoromethyl)phenyl]-L-alaninamide]
23 | 6.30 to 7.30 | – | – | Nc1nc(SCC(=O)Nc2cccc(C(F)(F)F)c2)c(CO)c(Sc2ccccc2)n1 [Example 52]
24 | > 7.30 | – | < 5.70 | Nc1nc(NCC(=O)Nc2cccc(C(F)(F)F)c2)cc(N2CCOCC2)n1
25 | 6.30 to 7.30 | – | – | CSc1cc(SCC(=O)Nc2cccc(C(F)(F)F)c2)nc(N)n1 [Example 48, 2-{[2-amino-6-(methylthio)pyrimidin-4-yl]thio}-N-[3-(trifluoromethyl)phenyl]acetamide]
26 | 5.70 to 6.30 | – | – | CSc1nc(N)nc(N[C@@H](C)C(=O)Nc2cccc(C(F)(F)F)c2)c1C#N [Example 60, N^2-[2-amino-5-cyano-6-(methylthio)pyrimidin-4-yl]-N-[3-(trifluoromethyl)phenyl]-L-alaninamide]
